The target in assay [1] is T1, NLRP3 (Homo sapiens, UniProt Q96P20). As to the kind of experiment: THP-1 cells pyroptosis assay (LPS + nigericin, resazurin readout). Format: cell-based. The settings on record: NLRP3 inhibitory activity in THP-1 cells, 1.0 μg/ml LPS, 5 μM nigericin. Further details: Seed THP-1 cells (25,000 cells/well) containing 1.0 μg/ml LPS in 40 μl of RPMI medium; host or cells: THP-1 cells, LPS-primed and nigericin-stimulated. The source says: It is well established that the activation of NLRP3 leads to cell pyroptosis and this feature plays an important part in the manifestation of clinical disease (Yan-gang Liu et al., Cell Death & Disease, 2017, 8(2), e2579; Alexander Wree et al., Hepatology, 2014, 59(3), 898-910; Alex Baldwin et al., Journal of Medicinal Chemistry, 2016, 59(5), 1691-1710; Ema Ozaki et al., Journal of Inflammation Research, 2015, 8, 15-27; Zhen Xie & Gang Zhao, Neuroimmunology Neuroinflammation, 2014, 1(2), 60-65; Mattia Cocco et al., Journal of Medicinal Chemistry, 2014, 57(24), 10366-10382; T. Satoh et al., Cell Death & Disease, 2013, 4, e644). Therefore, it is anticipated that inhibitors of NLRP3 will block pyroptosis, as well as the release of pro-inflammatory cytokines (e.g. IL-1β) from the cell. THP-1 cells (ATCC # TIB-202) were grown in RPMI containing L-glutamine (Gibco #11835) supplemented with 1 mM sodium pyruvate (Sigma # S8636) and penicillin (100 units/ml)/streptomycin (0.1 mg/ml) (Sigma # P4333) in 10% Fetal Bovine Serum (FBS) (Sigma # F0804). The cells were routinely passaged and grown to confluency (˜10^6 cells/ml). On the day of the experiment, THP-1 cells were harvested and resuspended into RPMI medium (without FBS). The cells were then counted and viability (>90%) checked by Trypan blue (Sigma # T8154). Appropriate dilutions were made to give a concentration of 625,000 cells/ml. To this diluted cell solution was added LPS (Sigma # L4524) to give a […] Final Assay Concentration (FAC). 40 μl of the final preparation was aliquoted into each well of a 96-well plate. The plate thus prepared was used for compound screening. The following method step-by-step assay was followed for compound screening. • 1. Seed THP-1 cells (25,000 cells/well) containing 1.0 μg/ml LPS in 40 μl of RPMI medium (without FBS) in 96-well, black walled, clear bottom cell culture plates coated with poly-D-lysine (VWR #734-0317) • 2. Add 5 μl compound (8 points half-log dilution, with 10 μM top dose) or vehicle (DMSO 0.1% FAC) to the appropriate wells • 3. […] Add 5 μl nigericin (Sigma # N7143) (FAC 5 μM) to all wells • 5. […] At the end of the incubation period, spin plates at 300×g for 3 mins and remove supernatant • 7. Then add 50 μl of resazurin (Sigma # R7017) (FAC 100 μM resazurin in RPMI medium without FBS) and incubate plates for a further 1-2 hrs at 37° C. and 5% CO2 • 8. Plates were read in an Envision reader at Ex 560 nm and Em 590 nm • 9. IC50 data is fitted to a non-linear regression equation (log inhibitor vs response-variable slope 4-parameters) The results of the pyroptosis assay performed are summarised in Table 1 below as THP IC50.

The target of assay [2] is T1, NLRP3. As to the kind of experiment: Human whole blood IL1β release assay (LPS + nigericin, AlphaLisa IL-1β). Format: cell-based. Also noted: Plate out 80 μl of whole blood containing 1βg/ml of LPS in 96-well, clear bottom cell culture plate; from tissue; host or cells: human whole blood from healthy donors, LPS-primed and nigericin-stimulated. The settings on record: NLRP3 inhibitory activity in human whole blood, IL-1β release, 10 μM nigericin, read-out: HWB IC50. As to the method: For systemic delivery, the ability to inhibit NLRP3 when the compounds are present within the bloodstream is of great importance. For this reason, the NLRP3 inhibitory activity of a number of compounds in human whole blood was investigated in accordance with the following protocol.
Human whole blood in Li-heparin tubes was obtained from healthy donors from a volunteer donor panel. • 1. Plate out 80 μl of whole blood containing 1βg/ml of LPS in 96-well, clear bottom cell culture plate (Corning #3585) • 2. Add 10 μl compound (8 points half-log dilution with 10 μM top dose) or vehicle (DMSO 0.1% FAC) to the appropriate wells • 3. Incubate for 3 hrs at 37° C., 5% CO2 • 4. Add 10 μl Nigericin (Sigma # N7143) (10 μM FAC) to all wells • 5. Incubate for 1 hr at 37° C., 5% CO2 • 6. At the end of the incubation period, spin plates at 300×g for 5 mins to pellet cells and remove 20 μl of supernatant and add to 96-well v-bottom plates for IL-1β analysis (note: these plates containing the supernatants can be stored at −80° C. to be analysed at a later date) • 7. IL-1β was measured according to the manufacturer protocol (Perkin Elmer-AlphaLisa IL-1 Kit AL220F-5000) • 8. IC50 data is fitted to a non-linear regression equation (log inhibitor vs response-variable slope 4-parameters)
In general terms: Bead proximity is the source of the signal in Alpha formats.

Consider 21 molecules from patent US20200331850A1, “NOVEL SULFONAMIDE CARBOXAMIDE COMPOUNDS” (Inflazome Limited, priority 2017, published 2020).

Structures are written as SMILES. Structures can show the parent of a compound that is named as a salt.

T1 sequence (Q96P20 whole entry): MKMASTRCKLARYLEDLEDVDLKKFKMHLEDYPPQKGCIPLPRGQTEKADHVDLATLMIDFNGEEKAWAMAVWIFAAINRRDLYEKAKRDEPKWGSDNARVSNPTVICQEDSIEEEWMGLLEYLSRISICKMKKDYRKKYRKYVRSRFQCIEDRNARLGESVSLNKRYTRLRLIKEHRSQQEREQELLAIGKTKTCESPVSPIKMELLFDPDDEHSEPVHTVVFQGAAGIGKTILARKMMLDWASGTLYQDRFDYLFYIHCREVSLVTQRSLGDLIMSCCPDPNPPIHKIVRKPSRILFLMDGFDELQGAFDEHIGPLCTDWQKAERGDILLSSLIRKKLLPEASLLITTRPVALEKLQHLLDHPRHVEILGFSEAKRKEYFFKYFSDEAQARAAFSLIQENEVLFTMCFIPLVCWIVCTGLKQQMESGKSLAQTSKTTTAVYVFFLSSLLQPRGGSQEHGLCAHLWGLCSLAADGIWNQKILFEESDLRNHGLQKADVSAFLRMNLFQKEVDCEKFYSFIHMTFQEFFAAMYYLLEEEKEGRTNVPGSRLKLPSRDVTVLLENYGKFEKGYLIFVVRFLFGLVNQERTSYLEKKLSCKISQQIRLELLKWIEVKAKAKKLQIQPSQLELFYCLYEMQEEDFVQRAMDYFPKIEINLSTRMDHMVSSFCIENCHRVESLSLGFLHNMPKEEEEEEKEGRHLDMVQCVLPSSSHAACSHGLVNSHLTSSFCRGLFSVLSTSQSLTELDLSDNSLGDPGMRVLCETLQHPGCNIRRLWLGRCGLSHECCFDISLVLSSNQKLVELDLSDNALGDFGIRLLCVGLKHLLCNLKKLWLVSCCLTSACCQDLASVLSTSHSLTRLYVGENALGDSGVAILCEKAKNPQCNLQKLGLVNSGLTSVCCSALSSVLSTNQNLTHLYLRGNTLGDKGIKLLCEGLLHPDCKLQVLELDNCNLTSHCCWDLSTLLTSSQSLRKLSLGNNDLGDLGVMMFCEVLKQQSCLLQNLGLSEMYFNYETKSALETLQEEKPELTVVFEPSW

What is called IC50 is the midpoint of a concentration-inhibition curve. Turning to `COc1cc(-c2ccc3c(c2NC(=O)NS(=O)(=O)Cc2cccnc2)CCC3)ccn1` [Example 55, N-((5-(2-Methoxypyridin-4-yl)-2,3-dihydro-1H-inden-4-yl)carbamoyl)-1-(pyridin-3-yl)methanesulfonamide], the IC50 in assay [1] fell in the range of 2000 to 10000 nM. On the same count and under the same terms, the value for `COCCC(=O)N(C)CCCS(=O)(=O)NC(=O)Nc1c2c(cc3c1CCC3)CCC2` [Example 94, N-(3-(N-((1,2,3,5,6,7-Hexahydro-s-indacen-4-yl)carbamoyl)sulfamoyl)propyl)-3-methoxy-N-methylpropanamide] was 1600 to 2000 nM.

Regarding `O=C(Nc1c2c(cc3c1CCC3)CCC2)NS(=O)(=O)CCCCN1CCC1` [Example 86, 4-(Azetidin-1-yl)-N-((1,2,3,5,6,7-hexahydro-s-indacen-4-yl)carbamoyl)butane-1-sulfonamide], the IC50 in assay [1] was 2000 to 10000 nM. As to `CN1CC2(CC(S(=O)(=O)NC(=O)Nc3c4c(cc5c3CCC5)CCC4)C2)C1` [Example 40, N-((1,2,3,5,6,7-Hexahydro-s-indacen-4-yl)carbamoyl)-2-methyl-2-azaspiro[3.3]heptane-6-sulfonamide, potassium salt], the IC50 in assay [1] lay in the range of 2000 to 10000 nM. Same read-out and setting: as for `CCN(C(C)=O)C1CCC(S(=O)(=O)NC(=O)Nc2c3c(cc4c2CCC4)CCC3)CC1` (centres unmarked) [Example 63, N-ethyl-N-(4-(N-((1,2,3,5,6,7-hexahydro-s-indacen-4-yl)carbamoyl)sulfamoyl)cyclohexyl)acetamide], the figure is 2000 to 10000 nM; as for `O=C(Nc1c2c(cc3c1CCC3)CCC2)NS(=O)(=O)CCCCN1CCOCC1` [Example 9, N-((1,2,3,5,6,7-Hexahydro-s-indacen-4-yl)carbamoyl)-4-morpholinobutane-1-sulfonamide, Potassium Salt], 2000 to 10000 nM. `O=C(Nc1c2c(cc3c1CCC3)CCC2)NS(=O)(=O)CCCN1CCOCC1` [Example 15, N-((1,2,3,5,6,7-Hexahydro-s-indacen-4-yl)carbamoyl)-3-morpholinopropane-1-sulfonamide, Potassium Salt]: the IC50 in assay [1] was 1600 to 2000 nM. Still for that read-out and setting: the value for `CCN(CC)CCS(=O)(=O)NC(=O)Nc1c2c(cc3c1CCC3)CCC2` [Example 18, 2-(Diethylamino)-N-((1,2,3,5,6,7-hexahydro-s-indacen-4-yl)carbamoyl)ethane-1-sulfonamide, potassium salt] was 2000 to 10000 nM; that for `COc1cc(-c2cc(F)cc(C(C)C)c2NC(=O)NS(=O)(=O)Cc2cccnc2)ccn1` [Example 54, N-((4-Fluoro-2-isopropyl-6-(2-methoxypyridin-4-yl)phenyl)carbamoyl)-1-(pyridin-3-yl)methanesulfonamide] was 2000 to 10000 nM; that for `CC(=O)NCCS(=O)(=O)NC(=O)Nc1c2c(cc3c1CCC3)CCC2` [Example 6, N-(2-(N-((1,2,3,5,6,7-Hexahydro-s-indacen-4-yl)carbamoyl)sulfamoyl)ethyl)acetamide, Potassium Salt] was 2000 to 10000 nM. Turning to `CC(C)c1cc(F)cc(-c2ccnc(C#N)c2)c1NC(=O)NS(=O)(=O)Cc1cccnc1` [Example 112, N-((2-(2-Cyanopyridin-4-yl)-4-fluoro-6-isopropylphenyl)carbamoyl)-1-(pyridin-3-yl)methanesulfonamide], in assay [1], the IC50 was in the range of 2000 to 10000 nM. The same measure, in the same setting: as for `CN(C)C1CCN(CCCS(=O)(=O)NC(=O)Nc2c3c(cc4c2CCC4)CCC3)CC1` [Example 2, 3-(4-(Dimethylamino)piperidin-1-yl)-N-((1,2,3,5,6,7-hexahydro-s-indacen-4-yl)carbamoyl)propane-1-sulfonamide, potassium salt], the figure is 2000 to 10000 nM; as for `COCCCS(=O)(=O)NC(=O)Nc1c(-c2ccnc(C#N)c2)cc(F)cc1C(C)C` [Example 49, N-((2-(2-Cyanopyridin-4-yl)-4-fluoro-6-isopropylphenyl)carbamoyl)-3-methoxypropane-1-sulfonamide], 2000 to 10000 nM. As for `CC(C)N1CC2(COC(CS(=O)(=O)NC(=O)Nc3c4c(cc5c3CCC5)CCC4)C2)C1` (centres unmarked) [Example 77, N-((1,2,3,5,6,7-Hexahydro-s-indacen-4-yl)carbamoyl)-1-(2-isopropyl-6-oxa-2-azaspiro[3.4]octan-7-yl)methanesulfonamide, Potassium Salt], the values for the IC50 in assay [2] and in assay [1] were no more than 7500 nM and 2000 to 10000 nM, respectively. For the molecule `CC(C)c1cc(F)cc(C(C)C)c1NC(=O)NS(=O)(=O)CCCN(C)C` [Example 101, 3-(Dimethylamino)-N-((4-fluoro-2,6-diisopropylphenyl)carbamoyl)propane-1-sulfonamide], the IC50 in assay [1] was in the range of 2000 to 10000 nM.

For `CC(C)N1CCC(CS(=O)(=O)NC(=O)Nc2c3c(cc4c2CCC4)CCC3)C1` (centres unmarked) [Example 25, N-((1,2,3,5,6,7-Hexahydro-s-indacen-4-yl)carbamoyl)-1-(1-isopropylpyrrolidin-3-yl)methanesulfonamide, Potassium Salt], the IC50 in assay [1] lay within 2000 to 10000 nM. Same read-out and setting: the value for `CN1CCC(CS(=O)(=O)NC(=O)Nc2c(-c3ccncc3)cc(F)c3c2CCC3)C1` (centres unmarked) [Example 60, N-((7-Fluoro-5-(pyridin-4-yl)-2,3-dihydro-1H-inden-4-yl)carbamoyl)-1-(1-methylpyrrolidin-3-yl)methanesulfonamide] was 2000 to 10000 nM; that for `CCN(CCCS(=O)(=O)NC(=O)Nc1c(-c2ccnc(C#N)c2)cc(F)cc1C(C)C)Cc1ccccc1` [Example 46, 3-(Benzyl(ethyl)amino)-N-((2-(2-cyanopyridin-4-yl)-4-fluoro-6-isopropylphenyl)carbamoyl)propane-1-sulfonamide] was 2000 to 10000 nM; that for `O=C(Nc1c(-c2ccncc2)cc(F)c2c1CCC2)NS(=O)(=O)Cc1cccnc1` [Example 56, N-((7-Fluoro-5-(pyridin-4-yl)-2,3-dihydro-1H-inden-4-yl)carbamoyl)-1-(pyridin-3-yl)methanesulfonamide] was 2000 to 10000 nM. Turning to `CC(C)c1cc(Cl)cc(C(C)C)c1NC(=O)NS(=O)(=O)CCCN(C)C` [Example 108, 3-(Dimethylamino)-N-((4-chloro-2,6-diisopropylphenyl)carbamoyl)propane-1-sulfonamide], in assay [1], the IC50 fell in the range of 2000 to 10000 nM. Regarding `CN(C)CCCCS(=O)(=O)NC(=O)Nc1c2c(cc3c1CCC3)CCC2` [Example 82, 4-(Dimethylamino)-N-((1,2,3,5,6,7-hexahydro-s-indacen-4-yl)carbamoyl)butane-1-sulfonamide], the IC50 in assay [2] is no more than 5000 nM; in assay [1], 1600 to 2000 nM.
